One assay concerns the target ASK1/MAP3K5 (Homo sapiens (Human), UniProt Q99683). Nature of the assay: ASK1/MAP3K5 assay by Reaction Biology Corp. It counts as biochemical. The method, then:
ASK1/MAP3K5 was used as the protein kinase and 20 μM of myelin basic protein (MBP) and 10 μM ATP were used as the substrate.

In assay [1] the target is ASK1 T838 auto phosphorylation in HEK-293T cells (Homo sapiens (Human), UniProt Q99683). Nature of the assay: ASK1 (AUTO PHOS T838) assay, MSD format. As to conditions: HEK 293T cells transfected with ASK1-V5 full length plasmid, compounds 1 hr at 37° C.; read-out: IC50. Format: cell-based. The method, then:
The plates were incubated at 37° C. overnight. Media on plates was changed to OPTI-MEM, serum free media and cells were transfected with 9 μg of ASK1-V5 tagged full length plasmid using Lipofectamine 2000 (Invitrogen) and the plates were incubated at 37° C. overnight. Cells were trypsinized, counted on Nexcellometer and plated into 96 well tissue culture plates with 100,000 cells/well and 200 μL media. Cells were incubated for 4 hr at 37° C. then ASK1 compounds were added using a HP 300e. Compounds were tested at 20 μM with 3 fold, 10 point dilution points then incubated for 1 hr at 37° C. A lysis buffer (Cell Signaling) was prepared with protease and phosphatase inhibitor and maintained at 4° C. until use. Media from cells was discarded and 120 μL of cold lysis buffer was added to the cells, the plate was shaken 4° C. for 1 hr. Lysate was mixed using Apricot liquid handler; aspirating up and down 16 times at high speed using 50 μL volume. […] Plates were then incubated on a plate shaker overnight at 4° C. Plates were washed 3× with MSD wash buffer and 50 μL of rabbit anti-pASK1 T838 antibody was added to the wells and incubated for 2 hr at room temperature on a plate shaker. Plates were then washed and 50 μL of goat anti-rabbit sulfa-tag (1:500 dilution) was added to wells, and incubated for 1 hr at room temperature on a plate shaker. […] Plates were immediately read on a MSD Instrument Reader where chemoluminecense signal was measured. Data was analyzed using Graph Pad or Genedata, the data was normalized and plotted, % activity versus log of compound concentration. The IC50 values were obtained from a 4 parameter fit.

The mark [2] stands for this setting: 20 μM myelin basic protein (MBP), 10 μM ATP.

The structures appear in SMILES notation. Where two headings read alike, the source gives them in different places. Where only a bound is given, the exact number is not on record here.

Consider 24 compounds from patent publication US11168095B2, “ASK1 inhibiting agents” (BIOGEN MA INC., priority 2017, dated 2021).

ASK1/MAP3K5, sequence (Q99683 whole entry): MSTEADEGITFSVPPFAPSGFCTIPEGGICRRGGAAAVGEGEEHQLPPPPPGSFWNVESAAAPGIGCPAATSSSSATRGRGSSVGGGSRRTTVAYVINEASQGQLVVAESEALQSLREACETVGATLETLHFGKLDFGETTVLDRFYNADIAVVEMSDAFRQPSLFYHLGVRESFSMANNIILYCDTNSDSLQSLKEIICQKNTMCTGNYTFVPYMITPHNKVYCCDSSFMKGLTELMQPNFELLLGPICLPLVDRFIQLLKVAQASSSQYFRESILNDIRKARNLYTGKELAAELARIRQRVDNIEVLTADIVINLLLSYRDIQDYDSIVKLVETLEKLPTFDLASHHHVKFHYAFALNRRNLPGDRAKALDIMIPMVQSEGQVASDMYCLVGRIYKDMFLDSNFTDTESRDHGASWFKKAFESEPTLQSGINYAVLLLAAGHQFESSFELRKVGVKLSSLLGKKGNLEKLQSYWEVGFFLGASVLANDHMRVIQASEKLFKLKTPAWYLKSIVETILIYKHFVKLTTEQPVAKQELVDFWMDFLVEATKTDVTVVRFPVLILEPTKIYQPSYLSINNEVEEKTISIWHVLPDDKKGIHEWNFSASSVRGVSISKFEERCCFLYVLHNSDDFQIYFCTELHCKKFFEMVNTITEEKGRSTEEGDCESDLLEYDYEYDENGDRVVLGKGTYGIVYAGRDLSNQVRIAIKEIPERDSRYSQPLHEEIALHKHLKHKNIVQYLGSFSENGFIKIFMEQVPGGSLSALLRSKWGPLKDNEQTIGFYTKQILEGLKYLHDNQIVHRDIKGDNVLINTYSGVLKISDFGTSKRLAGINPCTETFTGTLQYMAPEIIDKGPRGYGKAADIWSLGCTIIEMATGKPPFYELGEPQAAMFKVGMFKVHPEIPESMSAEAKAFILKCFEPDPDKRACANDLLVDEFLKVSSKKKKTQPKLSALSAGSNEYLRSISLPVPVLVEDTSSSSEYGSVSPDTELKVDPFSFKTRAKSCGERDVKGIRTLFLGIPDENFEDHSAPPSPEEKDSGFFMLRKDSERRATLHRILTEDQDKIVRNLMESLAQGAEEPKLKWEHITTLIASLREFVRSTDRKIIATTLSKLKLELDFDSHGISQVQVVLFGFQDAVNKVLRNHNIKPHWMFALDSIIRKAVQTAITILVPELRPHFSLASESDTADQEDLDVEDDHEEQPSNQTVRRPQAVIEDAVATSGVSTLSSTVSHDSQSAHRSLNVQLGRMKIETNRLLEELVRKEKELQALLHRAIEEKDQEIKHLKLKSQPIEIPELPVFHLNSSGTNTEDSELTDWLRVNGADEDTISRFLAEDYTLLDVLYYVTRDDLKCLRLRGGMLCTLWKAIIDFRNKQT
ASK1 T838 auto phosphorylation in HEK-293T cells, sequence (Q99683 whole entry): as above

The IC50 is the point on the concentration scale where inhibition reaches its midpoint. Take `C[C@@H]1CCCn2cnnc2-c2cccc(n2)NC(=O)c2cc(-c3ccncc3)ccc2O1` [Example 145, (R)-7-Methyl-5^5-(pyridin-4-yl)-1^4H-6-oxa-3-aza-2(2,6)-pyridina-1(3,4)-triazola-5(1,2)-benzenacyclodecaphan-4-one]: the IC50 at ASK1/MAP3K5 (setting [2]) was < 0.1 µM; in assay [1], < 1 µM.
For `C[C@@H]1CCCn2cnnc2-c2cccc(n2)NC(=O)c2cc(C#N)ccc2O1` [Example 151, (R)-7-Methyl-4-oxo-1^4H-6-oxa-3-aza-2(2,6)-pyridina-1(3,4)-triazola-5(1,2)-benzenacyclodecaphane-5^5-carbonitrile], the concentration for half-maximal inhibition (IC50) on ASK1/MAP3K5 (setting [2]) was < 0.1 µM; in assay [1], < 1 µM.
Take `C[C@@H]1CCCn2cnnc2-c2cccc(n2)NC(=O)c2cc(N3CCOCC3)ccc2O1` [Example 143, (R)-7-Methyl-5^5-morpholino-1^4H-6-oxa-3-aza-2(2,6)-pyridina-1(3,4)-triazola-5(1,2)-benzenacyclodecaphan-4-one]: the half-inhibitory concentration (IC50) was < 0.1 µM against ASK1/MAP3K5 (setting [2]) and < 1 µM in assay [1].
For the compound `Cc1cn(-c2cc3c(cc2F)OCC[C@H](C)Cn2cnnc2-c2cccc(n2)NC3=O)cn1` [Example 133, (S)-5^4-Fluoro-9-methyl-5^5-(4-methyl-1H-imidazol-1-yl)-1^4H-6-oxa-3-aza-2(2,6)-pyridina-1(3,4)-triazola-5(1,2)-benzenacyclodecaphan-4-one], the concentration for half-maximal inhibition (IC50) in assay [1] is < 1 µM.
For the compound `C[C@H]1CCCOc2cc(F)c(C#N)cc2C(=O)Nc2cccc(n2)-c2nncn21` [Example 118, (S)-5^4-Fluoro-10-methyl-4-oxo-1^4H-6-oxa-3-aza-2(2,6)-pyridina-1(3,4)-triazola-5(1,2)-benzenacyclodecaphane-5^5-carbonitrile], the half-inhibitory concentration (IC50) was < 0.1 µM on ASK1/MAP3K5 (setting [2]) and < 1 µM in assay [1].
Take `CC(C)(C#N)c1ccc2c(c1)C(=O)Nc1cccc(n1)-c1nncn1CCCCO2` [Example 51, 2-Methyl-2-(4-oxo-1^4H-6-oxa-3-aza-2(2,6)-pyridina-1(3,4)-triazola-5(1,2)-benzenacyclodecaphane-5^5-yl)propanenitrile]: the half-inhibitory concentration (IC50) in assay [1] was < 1 µM.
In the case of `NCc1ccc2c(c1)C(=O)Nc1cccc(n1)-c1nncn1CCCCO2` [Example 47, 5^5-(Aminomethyl)-1^4H-6-oxa-3-aza-2(2,6)-pyridina-1(3,4)-triazola-5(1,2)-benzenacyclodecaphan-4-one], the IC50 was < 0.1 µM at ASK1/MAP3K5 (setting [2]) and < 1 µM in assay [1].
Regarding `Cc1cn(-c2cc3c(cc2F)OCCCCn2cnnc2-c2cccc(n2)NC3=O)cn1` [Example 66, 5^4-Fluoro-5^5-(4-methyl-1H-imidazol-1-yl)-1^4H-6-oxa-3-aza-2(2,6)-pyridina-1(3,4)-triazola-5(1,2)-benzenacyclodecaphan-4-one], the results for the IC50 (at ASK1/MAP3K5 (setting [2]); in assay [1]) were < 0.1 µM and < 1 µM, respectively.
For `C[C@H]1CCCn2cnnc2-c2cccc(n2)NC(=O)c2cc(N3CCN(C)CC3)ccc2O1` [Example 140, (S)-7-Methyl-5^5-(4-methylpiperazin-1-yl)-1^4H-6-oxa-3-aza-2(2,6)-pyridina-1(3,4)-triazola-5(1,2)-benzenacyclodecaphan-4-one] the same measures were < 0.1 µM and < 1 µM.
Consider `COCCOc1cc2c(cc1F)OCCC[C@H](C)n1cnnc1-c1cccc(n1)NC2=O` [Example 117, (S)-5^4-Fluoro-5^5-(2-methoxyethoxy)-10-methyl-1^4H-6-oxa-3-aza-2(2,6)-pyridina-1(3,4)-triazola-5(1,2)-benzenacyclodecaphan-4-one], for which the concentration for half-maximal inhibition (IC50) was < 0.1 µM at ASK1/MAP3K5 (setting [2]) and < 1 µM in assay [1].
As to `O=C1Nc2cccc(n2)-c2nncn2C/C=C/COc2ccc(N3CCOCC3)cc21` [Example 168, (E)-5^5-Morpholino-1^4H-6-oxa-3-aza-2(2,6)-pyridina-1(3,4)-triazola-5(1,2)-benzenacyclodecaphan-8-en-4-one], the IC50 at ASK1/MAP3K5 is < 0.1 µM; in assay [1] it was < 1 µM.
In the case of `CN1CCC(c2cc3c(cc2F)C(=O)Nc2cccc(n2)-c2nncn2CCCCO3)CC1` [Example 86, 5^5-Fluoro-5^4-(1-methylpiperidin-4-yl)-1^4H-6-oxa-3-aza-2(2,6)-pyridina-1(3,4)-triazola-5(1,2)-benzenacyclodecaphan-4-one], the IC50 against ASK1/MAP3K5 (setting [2]) was < 0.1 µM; in assay [1] it was < 1 µM.
As to `CN(C)CCOc1cc2c(cc1F)OCCCCn1cnnc1-c1cccc(n1)NC2=O` [Example 76, 5^5-(2-(Dimethylamino)ethoxy)-5^4-fluoro-1^4H-6-oxa-3-aza-2(2,6)-pyridina-1(3,4)-triazola-5(1,2)-benzenacyclodecaphan-4-one], the values for the IC50 (at ASK1/MAP3K5; in assay [1]) were < 0.1 µM and < 1 µM, respectively.
For `COCCOc1cc2c(cc1F)OCC[C@H](C)Cn1cnnc1-c1cccc(n1)NC2=O` [Example 135, (S)-5^4-Fluoro-5^5-(2-methoxyethoxy)-9-methyl-1^4H-6-oxa-3-aza-2(2,6)-pyridina-1(3,4)-triazola-5(1,2)-benzenacyclodecaphan-4-one], the figures for the 50% inhibitory concentration (IC50) (against ASK1/MAP3K5 (setting [2]); in assay [1]) were < 0.1 µM and < 1 µM, respectively.
For `Cc1cn(-c2ccc3c(c2)C(=O)Nc2cccc(n2)-c2nncn2CCC[C@H](C)O3)cn1` [Example 148, (S)-7-Methyl-5^5-(4-methyl-1H-imidazol-1-yl)-1^4H-6-oxa-3-aza-2(2,6)-pyridina-1(3,4)-triazola-5(1,2)-benzenacyclodecaphan-4-one], the half-inhibitory concentration (IC50) against ASK1/MAP3K5 was < 0.1 µM; in assay [1], < 1 µM.
Regarding `CN1CCn2ncc(-c3cc4c(cc3F)OCC/C=C\Cn3cnnc3-c3cccc(n3)NC4=O)c2C1` [Example 182, (Z)-5^4-Fluoro-5^5-(5-methyl-4,5,6,7-tetrahydropyrazolo[1,5-a]pyrazin-3-yl)-1^4H-6-oxa-3-aza-2(2,6)-pyridina-1(3,4)-triazola-5(1,2)-benzenacycloundecaphan-9-en-4-one], the half-inhibitory concentration (IC50) in assay [1] is < 1 µM.
As for `C[C@H]1CCOc2cc(F)c(N3CCOCC3)cc2C(=O)Nc2cccc(n2)-c2nncn2C1` [Example 126, (S)-5^4-Fluoro-9-methyl-5^5-morpholino-1^4H-6-oxa-3-aza-2(2,6)-pyridina-1(3,4)-triazola-5(1,2)-benzenacyclodecaphan-4-one], in assay [1], the IC50 is < 1 µM.
Consider `C[C@H]1CCOc2cc(F)c(-c3ccc(F)nc3)cc2C(=O)Nc2cccc(n2)-c2nncn2C1` [Example 129, (S)-5^4-Fluoro-5^5-(6-fluoropyridin-3-yl)-9-methyl-1^4H-6-oxa-3-aza-2(2,6)-pyridina-1(3,4)-triazola-5(1,2)-benzenacyclodecaphan-4-one], for which the 50% inhibitory concentration (IC50) in assay [1] is < 1 µM.
Same read-out and setting: with `C[C@H]1CCCOc2cc(F)c(-c3ccncc3F)cc2C(=O)Nc2cccc(n2)-c2nncn21` [Example 109, (S)-5^4-Fluoro-5^5-(3-fluoropyridin-4-yl)-10-methyl-1^4H-6-oxa-3-aza-2(2,6)-pyridina-1(3,4)-triazola-5(1,2)-benzenacyclodecaphan-4-one] the figure was < 1 µM; with `C[C@H]1CCOc2cc(F)c(-c3cccnc3F)cc2C(=O)Nc2cccc(n2)-c2nncn2C1` [Example 128, (S)-5^4-Fluoro-5^5-(2-fluoropyridin-3-yl)-9-methyl-1^4H-6-oxa-3-aza-2(2,6)-pyridina-1(3,4)-triazola-5(1,2)-benzenacyclodecaphan-4-one], < 1 µM; with `C[C@H]1CCOc2cc(F)c(-c3cnn4c3CN(C)CC4)cc2C(=O)Nc2cccc(n2)-c2nncn2C1` [Example 131, (S)-5^4-Fluoro-9-methyl-5^5-(5-methyl-4,5,6,7-tetrahydropyrazolo[1,5-a]pyrazin-3-yl)-1^4H-6-oxa-3-aza-2(2,6)-pyridina-1(3,4)-triazola-5(1,2)-benzenacyclodecaphan-4-one], < 1 µM.
For `C[C@@H]1CCOc2cc(F)c(-c3cnn4c3CN(C)CC4)cc2C(=O)Nc2cccc(n2)-c2nncn2C1` [Example 132, (R)-5^4-Fluoro-9-methyl-5^5-(5-methyl-4,5,6,7-tetrahydropyrazolo[1,5-a]pyrazin-3-yl)-1^4H-6-oxa-3-aza-2(2,6)-pyridina-1(3,4)-triazola-5(1,2)-benzenacyclodecaphan-4-one], in assay [1], the IC50 was < 1 µM.
Regarding `CN(C)CCn1cc(-c2cc3c(cc2C(F)(F)F)OCCCCn2cnnc2-c2cccc(n2)NC3=O)cn1` [Example 77, 5^5-(1-(2-(Dimethylamino)ethyl)-1H-pyrazol-4-yl)-5^4-(trifluoromethyl)-1^4H-6-oxa-3-aza-2(2,6)-pyridina-1(3,4)-triazola-5(1,2)-benzenacyclodecaphan-4-one], the IC50 in assay [1] was < 1 µM.
On to `C[C@H]1CCCOc2cc(F)c(N3CCN(C)CC3)cc2C(=O)Nc2cccc(n2)-c2nncn21` [Example 105, (S)-5^4-Fluoro-10-methyl-5^5-(4-methylpiperazin-1-yl)-1^4H-6-oxa-3-aza-2(2,6)-pyridina-1(3,4)-triazola-5(1,2)-benzenacyclodecaphan-4-one], for which, in assay [1], the half-maximal inhibitory concentration (IC50) was < 1 µM.
